Measurements: ChEMBL document CHEMBL3739364, “Synthesis and biological evaluation of novel 5-(hydroxamic acid)methyl oxazolidinone derivatives” (Eur J Med Chem, 2015)
pIC50: −log10 of the molar value. In brackets after ≈: the same amount, converted by molar mass.

Columns and labels:
[1] = test system: Staphylococcus epidermidis; test: Antibacterial activity against methicillin-sensitive Staphylococcus epidermidis ATCC 12228; format: functional
Haemophilus influenzae = test: Antibacterial activity against Haemophilus influenzae ATCC 49247; format: functional
[2] = molecular target: T1, MAO-A (amine oxidase [flavin-containing] A) (Homo sapiens, UniProt P21397); test: Inhibition of human recombinant MAO-A using p-tyramine as substrate at 50 to 200 uM measured up to 50 mins by ELISA screening analysis; settings: probe p-tyramine
T1 sequence (P21397 whole entry): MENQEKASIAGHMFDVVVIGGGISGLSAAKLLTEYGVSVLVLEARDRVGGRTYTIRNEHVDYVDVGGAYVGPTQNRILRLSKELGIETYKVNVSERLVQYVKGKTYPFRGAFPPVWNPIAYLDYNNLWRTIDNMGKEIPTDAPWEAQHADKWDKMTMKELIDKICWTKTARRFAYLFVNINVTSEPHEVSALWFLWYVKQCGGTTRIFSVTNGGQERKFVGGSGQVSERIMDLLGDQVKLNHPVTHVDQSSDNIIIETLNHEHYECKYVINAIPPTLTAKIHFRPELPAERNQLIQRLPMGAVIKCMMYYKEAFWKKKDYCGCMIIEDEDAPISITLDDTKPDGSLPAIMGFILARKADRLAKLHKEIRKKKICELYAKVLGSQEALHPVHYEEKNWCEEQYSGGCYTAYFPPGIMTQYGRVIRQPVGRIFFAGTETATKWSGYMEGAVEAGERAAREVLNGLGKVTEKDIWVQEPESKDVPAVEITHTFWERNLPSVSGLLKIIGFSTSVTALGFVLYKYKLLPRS

Streptococcus pneumoniae = test: Antibacterial activity against Streptococcus pneumoniae; format: functional
Escherichia coli = test: Antibacterial activity against Escherichia coli ATCC 25922; format: functional
[3] = molecular target: T2, Amine oxidase [flavin-containing] B (Homo sapiens, UniProt P27338); test: Inhibition of human recombinant MAO-B using p-tyramine as substrate after 15 mins by UV/Vis spectrophotometer analysis
T2 sequence (P27338 whole entry): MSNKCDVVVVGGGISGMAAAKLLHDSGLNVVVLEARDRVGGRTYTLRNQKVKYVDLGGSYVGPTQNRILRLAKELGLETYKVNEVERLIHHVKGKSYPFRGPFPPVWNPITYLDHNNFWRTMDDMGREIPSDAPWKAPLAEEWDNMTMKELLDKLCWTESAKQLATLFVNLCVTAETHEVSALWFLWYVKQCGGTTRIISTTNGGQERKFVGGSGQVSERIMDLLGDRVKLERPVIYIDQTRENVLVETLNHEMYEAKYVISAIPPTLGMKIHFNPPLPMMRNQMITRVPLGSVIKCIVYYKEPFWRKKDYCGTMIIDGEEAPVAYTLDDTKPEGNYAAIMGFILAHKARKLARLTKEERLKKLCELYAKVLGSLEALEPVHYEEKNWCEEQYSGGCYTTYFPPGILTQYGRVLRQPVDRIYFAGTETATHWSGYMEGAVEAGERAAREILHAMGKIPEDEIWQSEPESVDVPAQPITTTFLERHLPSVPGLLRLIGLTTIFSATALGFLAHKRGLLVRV

[4] = molecular target: T3, MAO-B (amine oxidase [flavin-containing] B) (Homo sapiens, UniProt P27338); test: Inhibition of human recombinant MAO-B using p-tyramine as substrate at 50 to 200 uM measured up to 50 mins by ELISA screening analysis; settings: probe p-tyramine
T3 sequence (P27338 whole entry): T2 sequence (P27338 whole entry)

Staphylococcus aureus [5] = test: Antibacterial activity against […] Staphylococcus aureus ATCC 25923; format: functional
[6] = molecular target: T4, Amine oxidase [flavin-containing] A (Homo sapiens, UniProt P21397); test: Inhibition of human recombinant MAO-A using p-tyramine as substrate after 15 mins by UV/Vis spectrophotometer analysis
T4 sequence (P21397 whole entry): T1 sequence (P21397 whole entry)

Homo sapiens = species: Homo sapiens; test: Selectivity ratio of IC50 for human recombinant MAO-A to IC50 for human recombinant MAO-B
[7] = molecular target: T2, Amine oxidase [flavin-containing] B; test: Reversible inhibition of human MAO-B
[8] = molecular target: T4, Amine oxidase [flavin-containing] A; test: Reversible inhibition of human MAO-A
[9] = test system: Staphylococcus epidermidis; test: Antibacterial activity against methicillin-sensitive Staphylococcus epidermidis ATCC 12228 after 18 hrs by broth dilution method; format: functional; settings: ATCC 12228, 18 h
[10] = test system: Mycobacterium tuberculosis; test: Antimycobacterial activity against Mycobacterium tuberculosis H37Rv ATCC 27294; format: functional
Staphylococcus aureus [11] = test: Antibacterial activity against […] Staphylococcus aureus ATCC 25923 after 18 hrs by broth dilution method; format: functional; settings: ATCC 25923, 18 h
[12] = test system: Mycobacterium tuberculosis; test: Antimycobacterial activity against Mycobacterium tuberculosis H37Rv; format: functional

| Compound | MIC [1] | MIC (Haemophilus influenzae) | inhibition at 50 min [2] | MIC (Streptococcus pneumoniae) | MIC (Escherichia coli) | pIC50 [3] | inhibition at 50 min [4] | MIC (Staphylococcus aureus [5]) | pIC50 [6] | Ratio IC50 (Homo sapiens) | pIC50 [7] | pIC50 [8] | MIC [9] | MIC50 [10] | MIC90 [10] | MIC (Staphylococcus aureus [11]) | MIC [12] |
| --- | --- | --- | --- | --- | --- | --- | --- | --- | --- | --- | --- | --- | --- | --- | --- | --- | --- |
| CC(=O)ON(C[C@H]1CN(c2ccc(N3CCN(C(C)=O)CC3)c(F)c2)C(=O)O1)C(C)=O | > 32 µg/mL | > 32 µg/mL | < 50% | > 32 µg/mL | > 32 µg/mL | – | – | – | – | – | – | – | – | – | – | – | – |
| CCC(=O)N(O)C[C@H]1CN(c2ccc(N3CCOCC3)c(F)c2)C(=O)O1 | > 32 µg/mL | > 32 µg/mL | ≥ 50% | > 32 µg/mL | > 32 µg/mL | 4.00 | ≥ 50% | > 32 µg/mL | 3.94 | 1.15 | – | – | – | – | – | – | – |
| CC(C)C(=O)ON(C[C@H]1CN(c2ccc(N3CCOCC3)c(F)c2)C(=O)O1)C(=O)C(C)C | > 32 µg/mL | > 32 µg/mL | < 50% | > 32 µg/mL | > 32 µg/mL | 3.97 | ≥ 50% | – | – | – | – | – | – | – | – | – | – |
| CC(=O)N1CCN(c2ccc(N3C[C@H](CN(OC(=O)C(C)C)C(=O)C(C)C)OC3=O)cc2F)CC1 | > 32 µg/mL | > 32 µg/mL | < 50% | > 32 µg/mL | > 32 µg/mL | – | < 50% | – | – | – | – | – | – | – | – | – | – |
| CC(=O)N1CCN(c2ccc(N3C[C@H](CNO)OC3=O)cc2F)CC1.O=C(O)C(F)(F)F | > 32 µg/mL | > 32 µg/mL | ≥ 50% | > 32 µg/mL | > 32 µg/mL | – | – | > 32 µg/mL | 4.33 | – | – | – | – | – | – | – | – |
| Cn1nnc(-c2ccc(-c3ccc(N4C[C@H](CO)OC4=O)cc3F)cn2)n1 [TEDIZOLID] | – | – | – | – | – | – | – | – | – | – | 5.24 | 5.06 | – | – | – | – | – |
| CCC(=O)ON(C[C@H]1CN(c2ccc(N3CCOCC3)c(F)c2)C(=O)O1)C(=O)CC | > 32 µg/mL | > 32 µg/mL | < 50% | > 32 µg/mL | > 32 µg/mL | 3.77 | ≥ 50% | – | – | – | – | – | – | – | – | – | – |
| CC(=O)N1CCN(c2ccc(N3C[C@H](CN(OC(=O)C4CC4)C(=O)C4CC4)OC3=O)cc2F)CC1 | > 32 µg/mL | > 32 µg/mL | < 50% | > 32 µg/mL | > 32 µg/mL | – | – | – | – | – | – | – | – | – | – | – | – |
| O=C(C1CC1)N(O)C[C@H]1CN(c2ccc(N3CCOCC3)c(F)c2)C(=O)O1 | > 32 µg/mL | > 32 µg/mL | ≥ 50% | > 32 µg/mL | > 32 µg/mL | 4.04 | ≥ 50% | > 32 µg/mL | 3.95 | 1.23 | – | – | – | – | – | – | – |
| O=C(ON(C[C@H]1CN(c2ccc(N3CCOCC3)c(F)c2)C(=O)O1)C(=O)C1CC1)C1CC1 | > 32 µg/mL | > 32 µg/mL | < 50% | > 32 µg/mL | > 32 µg/mL | – | < 50% | – | – | – | – | – | – | – | – | – | – |
| CC(=O)N(O)C[C@H]1CN(c2ccc(N3CCOCC3)c(F)c2)C(=O)O1 | – | > 32 µg/mL | < 50% | > 32 µg/mL | > 32 µg/mL | – | < 50% | – | – | – | – | – | 16 µg/mL (≈ 45.3 µM) | 1.38 µg/mL (≈ 3.91 µM) | 4.6 µg/mL (≈ 13 µM) | > 32 µg/mL | – |
| CCC(=O)ON(C[C@H]1CN(c2ccc(N3CCN(C(C)=O)CC3)c(F)c2)C(=O)O1)C(=O)CC | > 32 µg/mL | > 32 µg/mL | < 50% | > 32 µg/mL | > 32 µg/mL | – | – | – | – | – | – | – | – | – | – | – | – |
| CC(=O)NC[C@H]1CN(c2ccc(N3CCOCC3)c(F)c2)C(=O)O1 [LINEZOLID] | 2 µg/mL (≈ 5.93 µM) | – | ≥ 50% | – | – | – | ≥ 50% | – | – | – | 5.68 | 4.34 | – | – | – | – | – |
| O=C1O[C@@H](CNO)CN1c1ccc(N2CCOCC2)c(F)c1 | > 32 µg/mL | > 32 µg/mL | ≥ 50% | > 32 µg/mL | > 32 µg/mL | 3.95 | ≥ 50% | > 32 µg/mL | 3.84 | 1.29 | – | – | – | – | – | – | – |
| CC(C)C(=O)N(O)C[C@H]1CN(c2ccc(N3CCOCC3)c(F)c2)C(=O)O1 | > 32 µg/mL | > 32 µg/mL | < 50% | > 32 µg/mL | > 32 µg/mL | 3.97 | ≥ 50% | > 32 µg/mL | – | – | – | – | – | – | – | – | – |
| CCC(=O)N(O)C[C@H]1CN(c2ccc(N3CCN(C(C)=O)CC3)c(F)c2)C(=O)O1 | > 32 µg/mL | > 32 µg/mL | < 50% | > 32 µg/mL | > 32 µg/mL | – | – | > 32 µg/mL | – | – | – | – | – | – | – | – | – |
| CC(=O)N(O)C[C@H]1CN(c2ccc(N3CCN(C(C)=O)CC3)c(F)c2)C(=O)O1 | > 32 µg/mL | > 32 µg/mL | < 50% | > 32 µg/mL | > 32 µg/mL | – | < 50% | > 32 µg/mL | – | – | – | – | – | – | – | – | – |
| NC(=S)NC[C@H]1CN(c2ccc(C3CCCCC3=O)c(F)c2)C(=O)O1 (some centres not stated) | – | – | – | – | – | – | – | – | – | – | – | – | – | – | – | – | 0.06 µg/mL (≈ 0.164 µM) |
| CC(=O)ON(C[C@H]1CN(c2ccc(N3CCOCC3)c(F)c2)C(=O)O1)C(C)=O | > 32 µg/mL | > 32 µg/mL | < 50% | > 32 µg/mL | > 32 µg/mL | – | < 50% | – | – | – | – | – | – | – | – | – | – |
